Assay results published in patent US12522582B2 (Gilead Sciences, Inc., priority 2022, dated 2026).

Experiments:
HSV-2 virus (MS strain) [1] = test: HSV qPCR Assay (HSV replication in ARPE-19 cells); conditions: Human alphaherpesvirus 2, ARPE-19, read-out: EC50-HSV2-qPCR
Description: HSV replication in the presence or absence of compounds was measured by qPCR according to the following procedure: DMSO stock compound solutions (1-10 mM) were serially diluted (2.5-fold) in DMSO in clear round bottom 96-well plates. Compounds were then diluted 1:20 in assay medium (DMEM/F12 Glutamax+2% Fetal bovine serum+1% Penicillin Streptomycin) and 10 μL of these dilutions were added to 96-well tissue culture plates for final starting concentrations between 0.5 and 5 μM.
Cells were resuspended in assay medium, counted, and cell density was adjusted to 2.8E+05 cells/ml with assay medium. […] 90 μL of the infection suspension (25,000 cells) were added to assay plates in which compounds were already added. After an overnight incubation at 37° C., cell culture medium was removed, and cell lysis was performed using the prepGEM Universal kit (MicroGEM cat #PUN1000). Specifically, 100 μL of prepGEM master mix (94.75 μL Water, 5 μL buffer, 0.25 μL enzyme stock) were added to each well and plates were incubated at room temperature for 15 minutes, with the 5 last minutes on a plate shaker. The cell lysates were then transferred to a 96-well PCR compatible microplate (Applied Biosystems, Cat #N8010560). Plates were sealed with a heat resistant plastic sealer and heated on a thermal cycler using the following conditions: 75° C. for 10 min, 95° C. for 5 minutes. Finally, plates were cooled down to room temperature with light shaking before proceeding to the qPCR setup.
Plates were sealed with a clear sealer, spun down, and qPCR reactions were performed in an Applied Biosystems Quantstudio 7 Flex instrument using the following conditions: 95° C. for 2 minutes, then 40 cycles alternating between 95° C. for 5 seconds and 60° C. for 30 seconds.
Analysis was performed using dCT method where dCT=CT (test)−CT (DMSO). Fold change was calculated using the 2^^dCT equation. This fold change was then converted to percentage relative to DMSO control (no drug). EC50s were determined by non-linear regression analysis using GraphPad Prism software.

HSV-2 virus (MS strain) [2] = test: HSV-2 Cellomics Assay (immunofluorescence of HSV protein gD in infected ARPE-19 cells); conditions: Human alphaherpesvirus 2, ARPE-19, 16 h
Description: Compounds were tested for their ability to inhibit HSV-2 replication by monitoring the expression of the HSV protein gD using a high-throughput immunofluorescence-based assay. 10-dose, 3-fold serial dilutions of compounds were prepared at starting concentrations of 0.2 or 2 mM in 100% DMSO. […] The final starting concentration in the assay was either 1 or 10 μM. DMSO (no compound) and pritelivir were included on each microplate as negative and positive controls, respectively.
Prior to confluence, cells were transferred to a centrifuge tube and spun for 5 minutes at 1000 rpm. Cells were resuspended in assay medium (DMEM/F-12 Glutamax, 2% FBS, 1% Penicillin-Streptomycin) and counted. Cell density was adjusted to 150,000 cells/ml and infected with HSV-2 virus (MS strain, ATCC cat #VR-540) at a MOI of 0.06 in a 50 ml conical tube for 1 hour under constant rocking. Cells were then spun for 5 minutes at 1000 rpm and the media replaced with assay medium containing either 2% FBS or 10% human serum (EMD Millipore cat #S1-100 ML). 50 μl of the infection suspension were added into microplate wells that were pre-spotted with compounds (7,500 cells per well). Plates were incubated for 16 hours at 37° C.
After a 30-minute incubation at room temperature, plates were washed 4 times with 100 μl/well of PBS using a Biotek plate washer. […] Plates were washed 4 times again and 50 μl of DPBS were added to all wells prior to sealing the plates with a black adhesive seal. Fluorescence was measured on a Cellomics plate reader.
Data analysis was carried out using the Thermo Scientific HCS Studio software. Briefly, cells were identified using the DAPI nuclear stain and thresholds were set to filter cells out based on shape and size. A second threshold based on green fluorescence intensity (detection of HSV-2 gD) was set to identify HSV-2 infected cells. Data was reported as the average fluorescence intensity of HSV-2 infected cells.

hCAII = hCAII (Homo sapiens (Human), UniProt P00918); test: Carbonic Anhydrase (Esterase) Biochemical Assay, hCAII; conditions: read-out: IC50-hCAII; 4-nitrophenyl acetate hydrolysis, 60 min
Description: 10-dose, 3-fold serial dilutions of compounds were prepared at starting concentrations of 10 mM in 100% DMSO. […] Final starting concentration in the assay was 50 μM. DMSO (no compound) and acetazolamide were included on each microplate as negative and positive controls, respectively.
Following a preincubation at room temperature for 15 minutes, 20 μl of a 4 mM solution of 4NPA substrate (Sigma cat #N8130) in assay buffer were added to start the reaction.

[3] = system: human cryopreserved hepatocytes; test: Stability Assay in Cryopreserved Hepatocytes (human); format: in vitro ADME; conditions: 1 μM, calculated from half-life using the well-stirred model
Description: Test compound was incubated at 1 μM with either rat or human cryopreserved hepatocytes (BioIVT, Westbury, NY) up to 6 hours at 37° C. in a 24-well plate format (1×10^6 cells/mL per well). At specified time points, samples were transferred to a 96-well plate and quenched with 2 volumes of a solution containing 90% acetonitrile 10% methanol 0.1% formic acid and internal standard. Sample plate was centrifuged at 3200 rpm for 15 min and supernatants transferred to a new plate containing half volume of water. The resulting solution was analyzed by LC-MS/MS. Data (analyte to internal standard peak area ratio) was plotted on a semi-log scale and fitted using an exponential fit. Assuming first order kinetics, the half-life (t1/2) and rate of metabolism were determined. Predicted hepatic clearance was calculated from the half-life using the well-stirred model.

[4] = MT-4 CC50 Assay (CellTiter Glo); format: cell-based; conditions: human, MT-4 cells, luminescence, read-out: CC50-MT4
Description: Compounds were tested in 384-well plates: 18 compounds in duplex. Compounds were diluted in 7 points, 3-fold with DMSO by Bravo. Assay plate, which contains 20 uL medium with compounds, was seeded 2000 MT-4 cells in 20 uL/well by Multi-drop to start the assay. The plate was incubated at 37° C. for 5 days. On 6th day, the CellTiter Glo 40 uL was added in each well. Luminescence was read by Victor II.

[5] = read-out: EC50-HSV2-10% Human Serum

| Structure (SMILES) | EC50 (HSV-2 virus (MS strain) [1]) [nM] | EC50 (HSV-2 virus (MS strain) [2]; [5]) [nM] | EC50 (HSV-2 virus (MS strain) [2]; read-out: EC50-HSV2-FBS) [nM] | IC50 (hCAII) [nM] | Predicted human hepatic clearance [3] [mL/min/kg] | CC50 at 5 days [4] [nM] |
| --- | --- | --- | --- | --- | --- | --- |
| NS(=O)(=O)c1cc2c(cc1Cl)CCN2C(=O)C1Cc2ccc(-c3ccccn3)cc2C1 (centres unmarked) [Example 5] | 10.9 | ≥ 25000 | 35 | ≥ 25000 | – | – |
| C[C@@H]1Cc2ccc(S(N)(=O)=O)cc2N1C(=O)[C@@H]1Cc2ccc(-c3ccccn3)cc2C1 [Example 15] | 4.9 | 276 | 28 | – | 0.933 | ≥ 50000 |
| NS(=O)(=O)c1cc2c(cc1F)CCN2C(=O)[C@@H]1Cc2ccc(-c3ccccn3)cc2C1 [Example 28] | – | 8440 | 6 | – | 3.67 | ≥ 50000 |
| C[C@@H]1Cc2cc(F)c(S(N)(=O)=O)cc2N1C(=O)[C@@H]1Cc2ccc(-c3ccccn3)cc2C1 [Example 35] | 1.1 | 57.5 | 7 | – | 0.917 | 24000 |
| C[C@@H]1Cc2cc(F)c(S(N)(=O)=O)cc2N1C(=O)[C@H]1Cc2cc(-c3ccccn3)ccc2O1 [Example 44] | 1 | 326 | 14 | – | 0.83 | ≥ 10000 |
| NS(=O)(=O)c1cc2c(cc1F)CCN2C(=O)[C@@H]1Cc2ccc(-c3cc(F)ccc3F)cc2C1 [Example 58, (R)-1-(5-(2,5-difluorophenyl)-2,3-dihydro-1H-indene-2-carbonyl)-5-fluoroindoline-6-sulfonamide] | – | 4310 | 12 | – | 5.33 | ≥ 10000 |
| C[C@@H]1Cc2cc(Cl)c(S(N)(=O)=O)cc2N1C(=O)[C@@H]1Cc2ccc(-c3ccccn3)cc2C1 [Example 60, (R)-5-chloro-2-methyl-1-((R)-5-(pyridin-2-yl)-2,3-dihydro-1H-indene-2-carbonyl)indoline-6-sulfonamide] | – | 434 | 13 | – | 2.83 | ≥ 10000 |
| C[C@@H]1Cc2cc(F)c(S(N)(=O)=O)cc2N1C(=O)[C@@H]1Cc2ccc(-c3cc(F)ccc3F)cc2C1 [Example 61, (R)-1-((R)-5-(2,5-difluorophenyl)-2,3-dihydro-1H-indene-2-carbonyl)-5-fluoro-2-methylindoline-6-sulfonamide] | – | 169 | 28 | – | 2.5 | ≥ 10000 |
| NS(=O)(=O)c1cc2c(cc1F)CCN2C(=O)[C@@H]1Cc2ccc(-c3ccccn3)cc2O1 [Example 65, (S)-5-fluoro-1-(6-(pyridin-2-yl)-2,3-dihydrobenzofuran-2-carbonyl)indoline-6-sulfonamide] | 1.4 | 147 | 16 | – | 0.83 | ≥ 10000 |
| NS(=O)(=O)c1ccc2c(c1)N(C(=O)C1Cc3ccc(-c4nccnc4F)cc3C1)CC2 (centres unmarked) [Example 73] | 17.5 | 6040 | 129 | ≥ 25000 | – | – |
| NS(=O)(=O)c1ccc2c(c1)N(C(=O)C1Cc3ccc(-c4cnccn4)cc3C1)CC2 (centres unmarked) [Example 74] | 8.3 | 11800 | 59 | ≥ 25000 | – | – |
| NS(=O)(=O)c1ccc2c(c1)N(C(=O)C1Cc3ccc(-c4cccc(F)n4)cc3C1)CC2 (centres unmarked) [Example 75] | 14.3 | – | 32 | ≥ 25000 | – | – |
| NS(=O)(=O)c1ccc2c(c1)N(C(=O)C1Cc3ccc(-c4ncccc4F)cc3C1)CC2 (centres unmarked) [Example 76] | 22 | – | 107 | ≥ 25000 | – | 2500 |
| NS(=O)(=O)c1ccc2c(c1)N(C(=O)[C@@H]1Cc3ccc(-c4ccccn4)cc3C1)CC2 [Example 81, (R)-1-(5-(pyridin-2-yl)-2,3-dihydro-1H-indene-2-carbonyl)indoline-6-sulfonamide] | 1.9 | ≥ 25000 | 20 | ≥ 25000 | 2.33 | ≥ 50000 |
| NS(=O)(=O)c1ccc2c(c1)N(C(=O)[C@@H]1Cc3ccc(-c4cnccn4)cc3C1)CC2 [Example 87, (R)-1-(5-(pyrazin-2-yl)-2,3-dihydro-1H-indene-2-carbonyl)indoline-6-sulfonamide] | – | 3280 | 13 | – | 5.17 | 306 |
| NS(=O)(=O)c1ccc2c(c1)N(C(=O)[C@@H]1Cc3ccc(-c4ncccc4F)cc3C1)CC2 [Example 89, (R)-1-(5-(3-fluoropyridin-2-yl)-2,3-dihydro-1H-indene-2-carbonyl)indoline-6-sulfonamide] | – | 1960 | 23 | – | 0.83 | 308 |
| C[C@H]1c2ccc(-c3ccccn3)cc2C[C@@H]1C(=O)N1CCc2ccc(S(N)(=O)=O)cc21 [Example 94, 1-((1R,2S)-1-methyl-5-(pyridin-2-yl)-2,3-dihydro-1H-indene-2-carbonyl)indoline-6-sulfonamide] | 3.9 | 195 | 49 | ≥ 50000 | – | ≥ 50000 |
| NS(=O)(=O)c1cc2c(cc1F)C[C@@H](CF)N2C(=O)[C@@H]1Cc2ccc(-c3ccccn3)cc2C1 [Example 125, (S)-5-fluoro-2-(fluoromethyl)-1-((R)-5-(pyridin-2-yl)-2,3-dihydro-1H-indene-2-carbonyl)indoline-6-sulfonamide] | 0.56 | 70.2 | 11.1 | – | 1.03 | – |
| NS(=O)(=O)c1cc2c(cc1F)C[C@H](CF)N2C(=O)[C@@H]1Cc2ccc(-c3ccccn3)cc2C1 [Example 126, (R)-5-fluoro-2-(fluoromethyl)-1-((R)-5-(pyridin-2-yl)-2,3-dihydro-1H-indene-2-carbonyl)indoline-6-sulfonamide] | 56.7 | ≥ 10000 | ≥ 1000 | – | 2.67 | – |
| NS(=O)(=O)c1ccc2c(c1)N(C(=O)[C@@H]1Cc3ccc(-c4ccncc4)cc3C1)CC2 [Example 131, (R)-1-(5-(pyridin-4-yl)-2,3-dihydro-1H-indene-2-carbonyl)indoline-6-sulfonamide] | – | ≥ 10000 | 753 | – | 9.5 | – |
| C[C@H]1c2ccc(-c3ccccn3)cc2C[C@@H]1C(=O)N1C[C@@H](C(F)(F)F)c2cc(F)c(S(N)(=O)=O)cc21 [Example 138, (S)-5-fluoro-1-((1R,2S)-1-methyl-5-(pyridin-2-yl)-2,3-dihydro-1H-indene-2-carbonyl)-3-(trifluoromethyl)indoline-6-sulfonamide] | 2 | 184 | 23.4 | – | 1 | – |
| C[C@H]1Cc2cc(F)c(S(N)(=O)=O)cc2N1C(=O)[C@H]1Cc2ccc(-c3ccccn3)cc2C1 [Example 140, (S)-5-fluoro-2-methyl-1-((S)-5-(pyridin-2-yl)-2,3-dihydro-1H-indene-2-carbonyl)indoline-6-sulfonamide] | – | ≥ 10000 | ≥ 10000 | – | 6 | – |
